Measured values: BigSolDB 2.1

Details: in acetone

CC[C@H](C)C(=O)O[C@H]1C[C@@H](C)C=C2C=C[C@H](C)[C@H](CC[C@@H]3C[C@@H](O)CC(=O)O3)[C@H]21
Details | solubility (mole fraction)
278.65 K | 0.00637
283.2 K | 0.00742
288.2 K | 0.00869
293.25 K | 0.0104
298.75 K | 0.0123
303.95 K | 0.0157
308.25 K | 0.0183
313.25 K | 0.0226
318.15 K | 0.0272
322.65 K | 0.0321
